# US20260224549A1, “COMPOUNDS, COMPOSITIONS, AND METHODS FOR TREATING, AMELIORATING, AND/OR PREVENTING PAIN” (priority 2023, published 2026)
# “Also recorded” adds a separate entry of the source. Where two headings read alike, the source gives them in different places.
# Legend:
# [1] = cited from earlier work
# [2] = Solubility in water of salts; type: physicochemical
# [3] = Thermal and storage stability of salts and forms; type: physicochemical; conditions: for stability at ambient conditions: storage
# From the text: On the basis of the DSC data, the acetate salt may be a hydrate.
# The amorphous form may be obtained by crystallization from anhydrous solvents or by thermal desolvation of the hydrate. In certain embodiments, the preferred polymorph of Compound I diphosphate is Compound I diphosphate monohydrate (Form A): […]
# [4] = Static vapor sorption studies; type: physicochemical; conditions: for Est. H2O Content (%) / Wt % Change: ambient temperature, 3 weeks, Form A staged
# From the text: Static Vapor Sorption Studies
# Static vapor sorption studies were done in hermetic humidity chambers using saturated salts, or environmental humidity chambers to control the temperature and humidity. Data collected during dynamic vapor sorption studies often are not at thermodynamic equilibrium. To gain a better understanding of the water uptake and the critical humidity level of the API, samples of the starting material (i.e., Form A) were monitored in static humidity chambers to allow the sample to equilibrate with atmospheric moisture.
# In these studies, water vapor sorption was determined gravimetrically by storing samples in open aluminum dishes. Compound I diphosphate salt lot was used for this study. Samples were stored at 7 different humidity levels at ambient temperature (Table 19). Approximately 50 mg of Form A was staged at each humidity condition. The samples were weighed before placing them in the chamber and then re-weighed after 3 weeks. After re-weighing, the samples were immediately analyzed by XRD to determine whether a change in form had occurred.
# The sample stored at 11% RH was an outlier and was therefore omitted from the final isotherm plot. The static isotherm plot is roughly consistent with the DVS isotherm plot (FIG. 12F) with a large moisture uptake at around 40% RH and a maximum uptake between 4 and 5 weight percent.
# [5] = Hygroscopicity - Dynamic Vapor Sorption (DVS); type: physicochemical
# Procedure: Hygroscopicity—Dynamic Vapor Sorption (DVS)
# DVS is a gravimetric technique that measures how quickly and how much of a solvent (water) is sorbed by a sample. The relative humidity or vapor concentration surrounding the sample is varied while the change in mass of the sample is measured. […] The mass values at each relative humidity step are used to generate an isotherm. Isotherms are divided in two components: sorption for increasing humidity steps and desorption for decreasing humidity steps. A plot of kinetic data is also used to show the change in mass and humidity as a function of time.
# The samples were analyzed using a TA Q5000 automated dynamic vapor sorption analyzer. The samples were dried at 60° C. over 180 minutes and then cooled to 25° C. with a dry nitrogen purge. The samples were then subjected to 0 to 90% RH, back to 10% RH at 25° C. in 10% RH steps.
# [6] = Phase I single ascending dose pharmacokinetics of metabolite Compound II in plasma; type: in vivo, human; conditions: for AUC(0-t): po; for Tmax: read-out: Tmax, Median
# From the text: The study comprised a single ascending dose (SAD), sequential cohort study, incorporating a food effect (FE) evaluation. Up to 40 subjects were to be studied in 5 cohorts (Cohorts A1 to A5), each cohort consisting of 8 subjects.
# The actual blood sampling dates and times relative to dosing time were listed by subject and nominal sampling time, with time deviation calculated, for all subjects with available plasma concentration data.
# For PK concentration data, the number of non-missing values, number of below limit of quantification (BLQ) values, arithmetic mean, standard deviation, median, minimum, maximum, coefficient of variation (CV %), geometric mean and geometric coefficient of variation (geo CV %) values was presented.
# For PK parameter data, the number of non-missing values, arithmetic mean, standard deviation, median, minimum, and maximum values were presented.
# [7] = Metabolism in liver microsomes and hepatocytes in vitro; type: in vitro ADME
# [8] = human, metabolite after 200 mg DS (Fasted), single oral dose, plasma
# [9] = human, metabolite after 400 mg DS (Fasted), single oral dose, plasma
# [10] = metabolite after 60 mg DS (Fasted), single oral dose, plasma
# [11] = metabolite after 120 mg DS (Fasted), single oral dose, plasma
# [12] = metabolite after 200 mg DS (Fasted), single oral dose, plasma
# [13] = metabolite after 400 mg DS (Fasted), single oral dose, plasma
smiles,measurement,setting,value
"O=S(=O)(O)CCS(=O)(=O)O [1,2-Ethanedisulfonic acid]",pKa,[1]; first value listed,−2.1
same,pKa,[1]; second value listed,−1.5
"O=S(=O)(O)c1cccc2c(S(=O)(=O)O)cccc12 [1,5-Naphthalenedisulfonic acid]",pKa,[1]; first value listed,−3.4
same,pKa,[1]; second value listed,−2.6
CC1(C)C2CCC1(CS(=O)(=O)O)C(=O)C2 (centres unmarked) [Camphorsulfonic acid],pKa,[1]; first value listed,2.2
"CN(C)C[C@H]1CN(CCc2ccsc2)CC[C@]1(O)c1cccc(C(N)=O)c1 [Compound I diphosphate, 3-(3S,4R)-3-((dimethylamino)methyl)-4-hydroxy-1-(2-(thiophen-3-yl)ethyl)piperidin-4-yl-benzamide bisphosphate]",aqueous solubility,[2],high aqueous solubility
same,solubility in unbuffered water,[2]; unbuffered water,high solubility
same,"stability (thermal, chemical)","[3]; in words, listed as diphosphate salt",more stable; also recorded: improved stability (thermally and chemically) over the other salts
same,stability at ambient conditions,[3]; listed as diphosphate salt,stable to storage under ambient conditions
same,Est. H2O Content (%),[4]; 11% relative humidity,3.1%
same,Wt % Change,[4]; 11% relative humidity,−0.2 Wt %
same,Est. H2O Content (%),[4]; 22% relative humidity,0.8%
same,Wt % Change,[4]; 22% relative humidity,−2.5 Wt %
same,Est. H2O Content (%),[4]; 33% relative humidity,1.8%
same,Wt % Change,[4]; 33% relative humidity,−1.5 Wt %
same,Est. H2O Content (%),[4]; 43% relative humidity,3.9%
same,Wt % Change,[4]; 43% relative humidity,+0.6 Wt %
same,Est. H2O Content (%),[4]; 75% relative humidity,4.1%
same,Wt % Change,[4]; 75% relative humidity,+0.8 Wt %
same,Est. H2O Content (%),[4]; 84% relative humidity,4.4%
same,Wt % Change,[4]; 84% relative humidity,+1.1 Wt %
same,Est. H2O Content (%),[4]; 97% relative humidity,4.8%
same,Wt % Change,[4]; 97% relative humidity,+1.5 Wt %
same,hygroscopicity,[5]; in words,moderately hygroscopic
"CNC[C@H]1CN(CCc2ccsc2)CC[C@]1(O)c1cccc(C(N)=O)c1 [Compound II, 3-(3S, 4R)-3-((methylamino)methyl)-4-hydroxy-1-(2-(thiophen-3-yl)ethyl)piperidin-4-yl-benzamide]","MRAUC0-t, metabolite ratio (MEB-373/MEB1170 AUC0-t values), Mean","[6]; 200 mg DS (Fasted), single oral dose, plasma",0.0231
same,"MRAUC0-t, metabolite ratio (MEB-373/MEB1170 AUC0-t values), Mean","[6]; 400 mg DS (Fasted), single oral dose, plasma",0.0276
same,half-life,"[6]; human, plasma, oral, 400 mg dose group (n=5), read-out: mean plasma t1/2 (converted)",0.902 h
same,half-life,"[6]; human, plasma, oral, one individual at 200 mg, read-out: t1/2 (converted)",2 h
same,AUC(0-t),"[6]; human, plasma, 200 mg, metabolite after 200 mg DS (Fasted), single oral dose, plasma, read-out: AUC0-t (zero to the time of the last quantifiable concentration), Mean",8.77 ng·h/mL
same,AUC(0-t),"[6]; human, plasma, 400 mg, metabolite after 400 mg DS (Fasted), single oral dose, plasma, read-out: AUC0-last (zero to 24 hours postdose), Mean",27.3 ng·h/mL
same,AUC(0-t),"[6]; human, plasma, 400 mg, metabolite after 400 mg DS (Fasted), single oral dose, plasma, read-out: AUC0-t (zero to the time of the last quantifiable concentration), Mean",21.1 ng·h/mL
same,Cmax,[6]; [8],7.91 ng/mL
same,Tmax,[6]; [8],2.26 h
same,Cmax,[6]; [9],12.2 ng/mL
same,AUC(0-inf),"[6]; human, metabolite after 400 mg DS (Fasted), single oral dose, plasma, read-out: AUC0-inf, Mean",28.7 ng·h/mL
same,Tmax,[6]; [9],2 h
same,half-life,"[6]; human, metabolite after 400 mg DS (Fasted), single oral dose, plasma, read-out: t1/2 (terminal plasma half-life), Mean (converted)",0.902 h
same,systemic exposures relative to Compound I,[6]; in vivo,very low relative to Compound I
same,"Tlast, Max",[6]; [10],2.50 h
same,"Tlast, Min",[6]; [10],2.50 h
same,"Tlast, Max",[6]; [11],4.00 h
same,"Tlast, Min",[6]; [11],2.50 h
same,"Tmax, Max",[6]; [11],2.50 h
same,"Tmax, Min",[6]; [11],2.50 h
same,"Tlast (time of last measurable concentration), Median",[6]; [12],3.25 h
same,"Tlast, Max",[6]; [12],4.00 h
same,"Tlast, Min",[6]; [12],2.50 h
same,"Tmax, Max",[6]; [12],2.50 h
same,"Tmax, Min",[6]; [12],1.00 h
same,"Tlast (time of last measurable concentration), Median",[6]; [13],4.00 h
same,"Tlast, Max",[6]; [13],4.00 h
same,"Tlast, Min",[6]; [13],2.50 h
same,"Tmax, Max",[6]; [13],2.50 h
same,"Tmax, Min",[6]; [13],1.50 h
same,plasma concentrations,"[6]; most subjects at doses of 20, 60, and 120 (fed) mg",below the limit of assay quantitation
same,metabolite formation in vitro,[7],predominant metabolite of Compound I
CCS(=O)(=O)O [Ethanesulfonic acid],pKa,[1]; first value listed,−2.1
CN(C)C[C@H]1CN(CCc2ccsc2)CC[C@]1(O)c1cccc(C(N)=O)c1 [Form A],heating withstood by the hydrate,[3],~ 70 °C
same,stability at ambient conditions,[3],stable at ambient conditions
same,change of solid state form with humidity,[4]; XRD after storage at different humidity levels,did not change at any humidity level; also recorded: retains its structure in both low and high humidity environments
same,relative humidity of large moisture uptake,[4]; static isotherm,around 40 % RH
same,maximum water/moisture uptake,[5]; at 90% RH,4.15 wt %
O=C(O)CNC(=O)c1ccccc1 [Hippuric acid],pKa,[1]; first value listed,3.6
O=S(=O)(O)c1ccc2ccccc2c1 [Naphthalene-2-sulfonic acid],pKa,[1]; first value listed,0.2
CCCCCCCCCCCCCCCCCC(=O)O [Stearic acid],pKa,[1]; first value listed,4.9
